The source made the active and inactive calls.
Columns and labels:
[1] = target: DNA dC->dU-editing enzyme APOBEC-3G (Homo sapiens, UniProt Q9HC16); experiment: Dose Response confirmation of small molecule APOBEC3G DNA Deaminase Inhibitors via a fluorescence-based single-stranded DNA deaminase assay. [Related pubchem assays (depositor defined):AID493012, AID493028]; assay type: functional
[2] = target: Dual specificity protein phosphatase 3 (Homo sapiens, UniProt P51452); experiment: VHR phosphatase inhibition, dose response, selectivity assay for STEP inhibitor project, biochemical (AID 602374); assay type: functional; settings: read-out: IC50_Mean
[3] = target: T1, Tyrosine-protein phosphatase non-receptor type 22 (Homo sapiens, UniProt Q9Y2R2); experiment: PTPN22 phosphatase inhibition, dose response, selectivity assay for STEP inhibitor project, biochemical (AID 624241); assay type: functional
T1 sequence (Q9Y2R2 whole entry): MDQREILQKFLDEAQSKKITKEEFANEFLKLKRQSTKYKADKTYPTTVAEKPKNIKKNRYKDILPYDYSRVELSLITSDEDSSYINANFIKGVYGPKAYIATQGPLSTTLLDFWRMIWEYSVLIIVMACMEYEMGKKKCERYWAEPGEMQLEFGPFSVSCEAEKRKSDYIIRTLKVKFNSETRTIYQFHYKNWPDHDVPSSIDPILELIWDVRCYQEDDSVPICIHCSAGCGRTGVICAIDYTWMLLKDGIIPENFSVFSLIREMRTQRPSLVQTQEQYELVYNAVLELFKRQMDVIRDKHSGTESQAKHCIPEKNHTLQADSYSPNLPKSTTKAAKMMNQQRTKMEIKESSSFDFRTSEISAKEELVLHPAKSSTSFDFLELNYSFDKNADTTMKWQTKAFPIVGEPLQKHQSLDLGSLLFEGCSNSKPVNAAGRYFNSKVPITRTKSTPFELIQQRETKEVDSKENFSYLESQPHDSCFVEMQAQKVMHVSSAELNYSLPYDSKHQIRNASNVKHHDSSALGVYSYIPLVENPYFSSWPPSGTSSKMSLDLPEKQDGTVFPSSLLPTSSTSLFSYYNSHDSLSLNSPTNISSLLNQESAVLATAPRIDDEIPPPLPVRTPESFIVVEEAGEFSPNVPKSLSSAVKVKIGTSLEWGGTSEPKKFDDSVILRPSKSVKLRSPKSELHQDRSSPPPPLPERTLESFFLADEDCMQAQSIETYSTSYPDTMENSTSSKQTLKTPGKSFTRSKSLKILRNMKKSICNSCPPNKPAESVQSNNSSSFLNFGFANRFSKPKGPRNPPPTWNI

[4] = target: T2, Tyrosine-protein phosphatase non-receptor type 5 (Homo sapiens, UniProt P54829); experiment: STEP phosphatase inhibitors, confirmation, biochemical, fluorescence intensity, uHTS hits (AID 602372); assay type: functional; settings: read-out: IC50_Mean
T2 sequence (P54829 whole entry): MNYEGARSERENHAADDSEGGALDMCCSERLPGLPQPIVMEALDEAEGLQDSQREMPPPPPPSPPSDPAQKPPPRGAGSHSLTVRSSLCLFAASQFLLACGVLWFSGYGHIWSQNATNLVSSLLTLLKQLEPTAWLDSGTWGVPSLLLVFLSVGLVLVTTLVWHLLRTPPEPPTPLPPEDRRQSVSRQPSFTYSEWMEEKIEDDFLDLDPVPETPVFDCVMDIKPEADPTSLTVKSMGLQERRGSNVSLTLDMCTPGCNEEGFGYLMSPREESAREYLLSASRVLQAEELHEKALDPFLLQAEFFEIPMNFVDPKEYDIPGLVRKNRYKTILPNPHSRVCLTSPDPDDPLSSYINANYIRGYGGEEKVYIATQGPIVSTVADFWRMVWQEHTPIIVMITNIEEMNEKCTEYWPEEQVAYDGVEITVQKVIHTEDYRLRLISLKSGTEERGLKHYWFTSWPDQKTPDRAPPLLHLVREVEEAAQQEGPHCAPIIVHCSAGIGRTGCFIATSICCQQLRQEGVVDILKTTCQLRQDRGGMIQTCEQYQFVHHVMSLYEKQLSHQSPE

[5] = target: T3, Tyrosine-protein phosphatase non-receptor type 11 (Homo sapiens, UniProt Q06124); experiment: SHP2 phosphatase inhibition, dose response, selectivity assay for STEP inhibitor project, biochemical (AID 602367); assay type: functional; settings: read-out: IC50_Mean
T3 sequence (Q06124 whole entry): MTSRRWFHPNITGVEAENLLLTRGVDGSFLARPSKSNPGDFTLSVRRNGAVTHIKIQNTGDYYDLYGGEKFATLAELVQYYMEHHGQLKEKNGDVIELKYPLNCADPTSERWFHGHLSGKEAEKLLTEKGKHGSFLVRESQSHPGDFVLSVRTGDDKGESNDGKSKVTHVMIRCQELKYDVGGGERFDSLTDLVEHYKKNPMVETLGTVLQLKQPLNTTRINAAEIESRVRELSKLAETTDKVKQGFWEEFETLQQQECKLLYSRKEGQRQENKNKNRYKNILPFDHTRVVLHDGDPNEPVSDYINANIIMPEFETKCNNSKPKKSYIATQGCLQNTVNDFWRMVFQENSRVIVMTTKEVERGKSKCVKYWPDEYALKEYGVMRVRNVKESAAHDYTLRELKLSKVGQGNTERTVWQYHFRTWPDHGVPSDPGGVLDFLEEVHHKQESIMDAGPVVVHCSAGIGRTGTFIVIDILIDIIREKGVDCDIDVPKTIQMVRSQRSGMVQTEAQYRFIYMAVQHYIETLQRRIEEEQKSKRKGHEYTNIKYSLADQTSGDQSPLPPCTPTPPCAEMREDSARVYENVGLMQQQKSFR

[6] = target: DNA dC->dU-editing enzyme APOBEC-3A (Homo sapiens, UniProt P31941); experiment: APOBEC3A DNA deaminase inhibitors, dose response, biochemical (AID 504722); assay type: functional
Genome polyprotein = Genome polyprotein (dengue virus type 2, UniProt P29990); experiment: Dengue-2 NS5 methyltransferase inhibitors, primary screen, biochemical, confirmation dose response (AID 588689); assay type: functional
Streptokinase A = target: T4, Streptokinase A (Streptococcus pyogenes serotype M1, UniProt P10520); experiment: S. pyogenes streptokinase expression inhibitors, potency, dose response, plasminogen activation absorbance, OD405 (AID 1914); assay type: functional, Streptococcus pyogenes M1 GAS;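 also: secreted streptokinase activity via plasminogen activation per viability signal from cell pellet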
T4 sequence (P10520 whole entry): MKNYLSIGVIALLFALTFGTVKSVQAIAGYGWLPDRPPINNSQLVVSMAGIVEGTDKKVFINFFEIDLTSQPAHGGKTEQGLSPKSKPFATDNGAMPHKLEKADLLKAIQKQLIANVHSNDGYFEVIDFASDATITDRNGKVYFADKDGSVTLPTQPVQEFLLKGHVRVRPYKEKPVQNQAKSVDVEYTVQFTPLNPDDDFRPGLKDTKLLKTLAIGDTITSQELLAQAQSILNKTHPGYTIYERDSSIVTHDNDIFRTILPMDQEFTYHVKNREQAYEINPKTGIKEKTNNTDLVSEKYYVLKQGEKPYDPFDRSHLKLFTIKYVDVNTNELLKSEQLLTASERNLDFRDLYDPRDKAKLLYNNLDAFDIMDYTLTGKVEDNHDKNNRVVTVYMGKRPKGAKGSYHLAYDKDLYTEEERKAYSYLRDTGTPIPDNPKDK

[7] = ARNT/TACC3 interaction disruptors, potency, confirmation, biochemical, AlphaScreen, cherry-picked samples (AID 651703); assay type: functional, Homo sapiens;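 also: His-tagged ARNT PAS-B domain paired with GST-TACC3 E629A dimer coactivator fragment; potency of inhibitors that break up the complex and lower AlphaScreen signal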
Vero = Vero cell cytotoxicity, cytotoxicity control for flavivirus capping enzyme inhibitors (AID 588742); assay type: functional; settings: Chlorocebus sabaeus
[8] = AlphaScreen signal interference compounds, dose response, artefact control for ARNT-TACC3 interaction inhibitor project, biochemical, luminescence, cherry-pick (AID 651705); assay type: functional;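 also: AlphaScreen bead proximity signal that flags compounds interfering with the detection technology; potency reflects signal decrease which marks the compound as an assay artifact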
Streptococcus = experiment: Group A Streptococcus viability loss, dose response, counter-screen for streptokinase expression inhibitor project, luminescence, BacTiterGlo (AID 1915); assay type: functional, organism-based;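 also: potency for reduction of bacterial viability or growth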
[9] = tested on: Streptococcus sp. 'group A'; experiment: growth inhibition of control SK(-) GAS strain, dose response, counter-screen for streptokinase expression inhibitor project, luminescence, kanamycin, BacTiterGlo, confirmation (AID 1900); assay type: functional, organism-based
[10] = target: T5, ATP-dependent translocase ABCB1 (Homo sapiens, UniProt P08183); experiment: ABCB1 efflux inhibitor potency, dose response, Jurkat-DNR cells, JC-1, flow cytometry, set 2 (AID 504569); assay type: functional; settings: read-out: EC50_MICROM_;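 also: potency of pump inhibitors that raise cellular JC-1 green fluorescence up to the nicardipine level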
[11] = target: T5, ATP-dependent translocase ABCB1; experiment: ABCG2 efflux pump inhibitor potency, dose response, Ig-MXP3 cells, JC-1, flow cytometry, set 2 (AID 504566); assay type: functional; settings: read-out: EC50_MICROM_;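 also: flow cytometry median green fluorescence of retained JC-1 dye; potency of efflux pump inhibition measured as rising substrate retention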
[12] = target: T6, Sentrin-specific protease 1 (Homo sapiens, UniProt Q9P0U3); experiment: Dose response confirmation of small molecule inhibitors of the catalytic domain of the SUMO protease, SENP1 in a FRET assay.; assay type: functional; settings: read-out: IC50_Mean
[13] = target: T6, Sentrin-specific protease 1; experiment: potency of human SENP1 inhibitors, dose response, biochemical, kinetic FRET (AID 651697); assay type: functional; settings: read-out: IC50_Mean
[14] = target: T7, Rac GTPase-activating protein 1 (Homo sapiens, UniProt Q9H0H5); experiment: MgcRacGAP GTPase-activating activity inhibitors, confirmation, biochemical, ADP Hunter fluorescence, primary and confirmatory (AID 624330); assay type: functional
T7 sequence (Q9H0H5 whole entry): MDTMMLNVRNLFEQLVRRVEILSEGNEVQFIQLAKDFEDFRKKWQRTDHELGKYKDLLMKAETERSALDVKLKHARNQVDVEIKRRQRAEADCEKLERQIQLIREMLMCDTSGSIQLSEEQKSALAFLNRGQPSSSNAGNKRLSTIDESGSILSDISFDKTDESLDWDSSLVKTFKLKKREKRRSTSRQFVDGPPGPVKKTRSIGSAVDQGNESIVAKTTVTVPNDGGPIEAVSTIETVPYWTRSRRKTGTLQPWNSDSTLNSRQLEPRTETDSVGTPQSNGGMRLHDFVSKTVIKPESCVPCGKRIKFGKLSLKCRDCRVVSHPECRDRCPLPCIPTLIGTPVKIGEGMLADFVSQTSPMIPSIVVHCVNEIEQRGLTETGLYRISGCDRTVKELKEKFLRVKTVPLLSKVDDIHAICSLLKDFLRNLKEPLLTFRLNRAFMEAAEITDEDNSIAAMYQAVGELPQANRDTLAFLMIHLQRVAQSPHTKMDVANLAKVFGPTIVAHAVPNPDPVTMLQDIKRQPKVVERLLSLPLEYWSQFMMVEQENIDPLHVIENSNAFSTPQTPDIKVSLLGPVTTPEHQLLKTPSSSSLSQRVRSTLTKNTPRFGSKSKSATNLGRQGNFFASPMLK

[15] = target: T8, RNA-binding protein pos-1 (Caenorhabditis elegans, UniProt G5EF15); experiment: inhibitors of POS-1/mex-3 RNA binding, dose response, biochemical, fluorescence polarization (AID 1964);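 also: purified POS-1 fused to maltose binding protein made in E. coli; potency of compounds blocking POS-1 binding to fluorescent RNA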
T8 sequence (G5EF15 whole entry): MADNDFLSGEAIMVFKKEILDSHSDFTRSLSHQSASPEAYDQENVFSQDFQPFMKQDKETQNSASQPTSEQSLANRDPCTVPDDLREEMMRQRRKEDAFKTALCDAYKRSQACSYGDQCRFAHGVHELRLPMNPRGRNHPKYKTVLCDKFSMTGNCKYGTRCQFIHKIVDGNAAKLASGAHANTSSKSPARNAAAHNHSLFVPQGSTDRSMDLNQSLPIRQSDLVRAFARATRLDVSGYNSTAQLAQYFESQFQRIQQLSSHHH

[16] = target: T9, Zinc finger protein mex-5 (Caenorhabditis elegans, UniProt Q9XUB2); experiment: MEX-5/TCR-2 RNA interaction inhibitors, dose response, biochemical, C. elegans, fluorescence polarization (AID 1960)
T9 sequence (Q9XUB2 whole entry): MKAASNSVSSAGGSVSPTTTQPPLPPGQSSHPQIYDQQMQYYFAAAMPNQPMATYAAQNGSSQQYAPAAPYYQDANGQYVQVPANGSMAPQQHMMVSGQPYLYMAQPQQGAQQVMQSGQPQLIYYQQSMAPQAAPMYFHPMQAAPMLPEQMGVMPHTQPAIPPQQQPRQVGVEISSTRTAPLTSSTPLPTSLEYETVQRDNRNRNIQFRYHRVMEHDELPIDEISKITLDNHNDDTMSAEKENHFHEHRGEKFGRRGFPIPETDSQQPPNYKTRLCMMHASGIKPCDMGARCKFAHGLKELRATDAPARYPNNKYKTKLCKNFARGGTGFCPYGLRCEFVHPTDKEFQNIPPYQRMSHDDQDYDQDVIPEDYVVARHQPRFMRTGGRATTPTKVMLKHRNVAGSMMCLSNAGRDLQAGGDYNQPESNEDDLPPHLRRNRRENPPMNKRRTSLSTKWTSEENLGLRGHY

[17] = target: T10, Low molecular weight phosphotyrosine protein phosphatase (Homo sapiens, UniProt P24666); assay type: functional; settings: read-out: IC50_Mean
T10 sequence (P24666 whole entry): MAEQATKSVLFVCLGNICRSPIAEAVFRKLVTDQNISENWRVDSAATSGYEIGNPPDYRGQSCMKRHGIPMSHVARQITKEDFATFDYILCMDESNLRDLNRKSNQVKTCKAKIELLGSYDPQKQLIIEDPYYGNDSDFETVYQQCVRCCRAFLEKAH

[18] = target: T10, Low molecular weight phosphotyrosine protein phosphatase; assay type: functional; settings: read-out: IC50_Mean; remark: listed apart in the source

T6 sequence (Q9P0U3 whole entry, the tested form may be a part): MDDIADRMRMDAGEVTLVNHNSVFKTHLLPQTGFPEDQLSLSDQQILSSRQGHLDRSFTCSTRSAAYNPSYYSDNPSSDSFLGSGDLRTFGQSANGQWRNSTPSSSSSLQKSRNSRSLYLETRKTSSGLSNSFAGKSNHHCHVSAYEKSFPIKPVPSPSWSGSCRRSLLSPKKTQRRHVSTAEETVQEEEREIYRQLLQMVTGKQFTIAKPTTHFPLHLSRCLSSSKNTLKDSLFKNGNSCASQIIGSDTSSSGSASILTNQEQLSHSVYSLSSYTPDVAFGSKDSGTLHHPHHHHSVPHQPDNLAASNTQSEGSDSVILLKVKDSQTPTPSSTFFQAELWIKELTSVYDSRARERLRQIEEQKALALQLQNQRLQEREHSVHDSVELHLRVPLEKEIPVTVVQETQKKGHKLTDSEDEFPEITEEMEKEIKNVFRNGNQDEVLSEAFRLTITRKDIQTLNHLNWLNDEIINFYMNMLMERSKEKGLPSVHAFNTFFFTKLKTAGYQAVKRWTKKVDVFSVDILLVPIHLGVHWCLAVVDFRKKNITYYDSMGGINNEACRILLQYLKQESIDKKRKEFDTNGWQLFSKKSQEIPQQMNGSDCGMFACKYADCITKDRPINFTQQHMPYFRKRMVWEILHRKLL
Dual specificity protein phosphatase 3, sequence (P51452 whole entry): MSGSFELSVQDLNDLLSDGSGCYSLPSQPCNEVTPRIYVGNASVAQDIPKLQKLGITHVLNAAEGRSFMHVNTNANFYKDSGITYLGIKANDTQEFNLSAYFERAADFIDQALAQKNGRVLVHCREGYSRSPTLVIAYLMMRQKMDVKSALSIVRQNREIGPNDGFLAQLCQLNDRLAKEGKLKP
T5 sequence (P08183 whole entry): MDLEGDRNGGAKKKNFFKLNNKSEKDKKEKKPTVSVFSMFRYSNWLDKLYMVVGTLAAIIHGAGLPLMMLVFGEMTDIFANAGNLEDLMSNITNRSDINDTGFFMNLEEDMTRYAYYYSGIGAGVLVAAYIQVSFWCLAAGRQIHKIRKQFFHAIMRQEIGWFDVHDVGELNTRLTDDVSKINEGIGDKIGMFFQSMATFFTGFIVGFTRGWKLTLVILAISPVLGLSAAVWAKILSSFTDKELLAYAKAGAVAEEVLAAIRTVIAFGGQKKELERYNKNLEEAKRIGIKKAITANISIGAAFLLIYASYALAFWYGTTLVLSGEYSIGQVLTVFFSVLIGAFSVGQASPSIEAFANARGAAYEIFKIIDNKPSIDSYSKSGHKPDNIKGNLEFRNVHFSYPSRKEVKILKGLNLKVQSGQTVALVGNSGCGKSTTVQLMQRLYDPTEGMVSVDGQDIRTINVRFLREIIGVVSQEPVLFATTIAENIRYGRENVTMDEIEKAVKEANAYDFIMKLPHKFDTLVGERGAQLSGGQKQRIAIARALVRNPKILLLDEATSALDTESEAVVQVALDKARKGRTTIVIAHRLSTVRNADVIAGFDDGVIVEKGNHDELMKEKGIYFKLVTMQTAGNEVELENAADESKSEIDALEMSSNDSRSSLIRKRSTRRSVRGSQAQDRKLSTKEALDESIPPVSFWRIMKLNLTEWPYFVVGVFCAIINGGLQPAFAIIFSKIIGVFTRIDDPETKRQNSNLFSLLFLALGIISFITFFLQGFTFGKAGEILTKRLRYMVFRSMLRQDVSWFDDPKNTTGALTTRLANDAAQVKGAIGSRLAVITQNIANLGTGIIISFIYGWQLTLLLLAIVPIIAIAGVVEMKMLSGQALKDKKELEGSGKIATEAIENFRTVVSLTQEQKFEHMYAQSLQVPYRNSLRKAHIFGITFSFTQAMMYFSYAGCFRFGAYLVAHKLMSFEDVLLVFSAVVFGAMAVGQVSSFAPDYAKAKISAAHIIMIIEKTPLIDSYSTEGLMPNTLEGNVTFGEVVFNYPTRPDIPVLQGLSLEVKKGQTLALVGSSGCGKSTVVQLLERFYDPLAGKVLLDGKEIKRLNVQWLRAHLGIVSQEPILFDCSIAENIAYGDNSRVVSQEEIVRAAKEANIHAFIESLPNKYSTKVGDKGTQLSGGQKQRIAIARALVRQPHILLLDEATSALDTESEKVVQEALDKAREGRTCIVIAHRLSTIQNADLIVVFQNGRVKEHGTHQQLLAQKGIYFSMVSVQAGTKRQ
Genome polyprotein, sequence (P29990 2492-3391 limits assumed): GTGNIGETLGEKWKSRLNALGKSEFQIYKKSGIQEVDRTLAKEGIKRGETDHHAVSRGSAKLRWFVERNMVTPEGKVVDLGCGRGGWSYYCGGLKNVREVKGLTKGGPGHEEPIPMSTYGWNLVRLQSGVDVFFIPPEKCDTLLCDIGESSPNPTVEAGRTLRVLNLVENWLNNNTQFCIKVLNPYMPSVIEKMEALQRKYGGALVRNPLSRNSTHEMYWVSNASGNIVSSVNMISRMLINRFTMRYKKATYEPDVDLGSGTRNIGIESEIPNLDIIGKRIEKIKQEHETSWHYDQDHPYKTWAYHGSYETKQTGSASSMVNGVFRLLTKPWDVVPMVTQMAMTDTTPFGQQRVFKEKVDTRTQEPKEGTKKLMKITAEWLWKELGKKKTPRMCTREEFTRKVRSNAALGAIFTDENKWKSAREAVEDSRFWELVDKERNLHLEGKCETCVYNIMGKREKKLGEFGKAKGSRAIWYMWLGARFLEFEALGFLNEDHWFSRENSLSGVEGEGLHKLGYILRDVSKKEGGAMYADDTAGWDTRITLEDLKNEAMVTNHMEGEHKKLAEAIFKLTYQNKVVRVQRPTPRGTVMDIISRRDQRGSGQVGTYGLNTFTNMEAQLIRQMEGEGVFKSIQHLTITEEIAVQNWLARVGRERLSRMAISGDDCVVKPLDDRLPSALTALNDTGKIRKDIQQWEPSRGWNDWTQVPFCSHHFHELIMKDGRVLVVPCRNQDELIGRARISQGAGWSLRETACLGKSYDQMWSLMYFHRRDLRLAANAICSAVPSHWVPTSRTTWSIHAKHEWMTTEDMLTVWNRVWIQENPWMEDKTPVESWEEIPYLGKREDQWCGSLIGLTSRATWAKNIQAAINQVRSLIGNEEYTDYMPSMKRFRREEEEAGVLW
DNA dC->dU-editing enzyme APOBEC-3G, sequence (Q9HC16 whole entry): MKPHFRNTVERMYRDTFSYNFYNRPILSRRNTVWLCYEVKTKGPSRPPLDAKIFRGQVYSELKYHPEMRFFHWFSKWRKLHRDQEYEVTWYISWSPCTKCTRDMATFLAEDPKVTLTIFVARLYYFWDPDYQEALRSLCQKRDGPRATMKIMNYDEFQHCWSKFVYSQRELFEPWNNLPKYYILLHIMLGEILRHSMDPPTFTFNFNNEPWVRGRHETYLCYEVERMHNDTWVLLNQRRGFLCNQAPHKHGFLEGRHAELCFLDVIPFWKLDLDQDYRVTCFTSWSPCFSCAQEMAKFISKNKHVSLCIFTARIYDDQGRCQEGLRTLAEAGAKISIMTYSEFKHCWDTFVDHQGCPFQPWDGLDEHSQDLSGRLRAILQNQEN
DNA dC->dU-editing enzyme APOBEC-3A, sequence (P31941 whole entry): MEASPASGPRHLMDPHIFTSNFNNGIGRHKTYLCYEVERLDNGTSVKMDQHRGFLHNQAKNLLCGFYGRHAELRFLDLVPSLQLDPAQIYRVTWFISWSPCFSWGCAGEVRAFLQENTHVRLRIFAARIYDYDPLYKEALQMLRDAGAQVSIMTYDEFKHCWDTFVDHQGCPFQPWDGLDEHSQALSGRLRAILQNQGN

CCN1CCN(C(=S)c2ccc(Cl)cc2)CC1
IC50 [1]: 5.06 µM (active)
IC50 [2]: 0.341 µM (active)
IC50 [3]: 12.8 µM (active)
IC50 [4]: 8.91 µM (active)
IC50 [5]: 0.318 µM (active)
IC50 [6]: > 100 µM (inactive)

COc1cccc(-c2coc3c(C)c4oc(=O)c(CCC(=O)O)c(C)c4cc23)c1
IC50 (Genome polyprotein): 40.5 µM (active)
EC50 (Streptokinase A): > 150 µM (not active)
AC50 [7]: 130 µM (active)
CC50 (Vero): > 40 µM (active)
AC50 [8]: 98 µM (active)
EC50 (Streptococcus): 13.4 µM (active)
EC50 [9]: 2.4 µM (active)

O=C(c1ccccc1Cl)N1CCN(c2cc(-c3ccccc3)nc3cc(-c4cccc(Cl)c4)nn23)CC1
EC50 [10]: 1.07 µM (active)
EC50 [11]: 1.15 µM (active)

CC1(C)CC2=Nc3ccccc3SC2=C(O)C1
IC50 [12]: 42.4 µM (inactive)
IC50 [13]: 29 µM (inactive)
IC50 [14]: 22.1 µM (active)
EC50 [15]: 43.9 µM (active)
EC50 [16]: 59.3 µM (active)

O=C(N/N=C/c1cccc([N+](=O)[O-])c1)c1ccc(Br)cc1
IC50 [17]: 22.8 µM (inactive)
IC50 [2]: 5.03 µM (active)
IC50 [18]: 15.1 µM (active)
IC50 [4]: 8.16 µM (active)
IC50 [5]: 6.62 µM (active)

— ChEMBL document CHEMBL1201862, “PubChem BioAssay data set” (2004)
